System: peripheral blood leukocytes of normal mice
Experiment: Effects on peripheral blood leukocytes of normal mice (peripheral blood routine test)
Format: in vivo
Conditions: G-CSF 22.5 ug/kg sc once a day
From the text: Animal hematology analyzer, model: HEMAVET950 • 2. Method
The mice were divided into blank control group, positive control group and the dithiolopyrrolone series of compounds group, there are 10 mice in each group.

[1] = day 0 (before administration), compounds 20 mg/kg ig once a day
[2] = day 3, compounds 20 mg/kg ig once a day
[3] = day 5, compounds 20 mg/kg ig once a day

Row | SMILES | NE % (percentage of neutrophils in the total number of white blood cells) [1] [%] | WBC count [1] [L⁻¹] | NE % (percentage of neutrophils in the total number of white blood cells) [2] [%] | WBC count [2] [L⁻¹] | NE % (percentage of neutrophils in the total number of white blood cells) [3] [%] | WBC count [3] [L⁻¹]
1 | CCCCOC(=O)Nc1c2sscc-2n(-c2ccc(OC)cc2OC)c1=O [compound 013] | 25.6 | 6.36e+09 | 48.76 | 1.269e+10 | 52.84 | 1.329e+10
2 | CCSC(=O)Nc1c2sscc-2n(-c2ccc(OC)cc2OC)c1=O [compound 027] | 24.45 | 8.76e+09 | 45.46 | 1.122e+10 | 48.37 | 1.254e+10
3 | COC(=O)Nc1c2sscc-2n(-c2ccc(OC)cc2OC)c1=O [compound 005] | 26.46 | 8.08e+09 | 35.55 | 8.76e+09 | 46.65 | 8.64e+09
4 | C=CCOC(=O)Nc1c2sscc-2n(-c2ccc(OC)cc2OC)c1=O [compound 008] | 31.56 | 8.88e+09 | 60.03 | 1.779e+10 | 65.55 | 1.876e+10
5 | COc1ccc(-n2c3cssc-3c(NC(=O)OC(C)C)c2=O)c(OC)c1 [compound 007] | 23.31 | 8.11e+09 | 48.67 | 1.188e+10 | 52.02 | 1.222e+10
6 | COc1ccc(-n2c3cssc-3c(NC(=O)OCc3cccs3)c2=O)c(OC)c1 [compound 021] | 29.78 | 5.22e+09 | 36.52 | 9.93e+09 | 49.65 | 1.122e+10
7 | COc1ccc(-n2c3cssc-3c(NC(=O)OC(C)c3ccccc3)c2=O)c(OC)c1 (stereo not drawn) [compound 020] | 30.03 | 5.09e+09 | 38.66 | 9.61e+09 | 42.49 | 1.122e+10
8 | COc1ccc(-n2c3cssc-3c(NC(=O)OCC(C)C)c2=O)c(OC)c1 [compound 002] | 20.11 | 8.12e+09 | 52.13 | 1.189e+10 | 68.69 | 1.678e+10
9 | CCCCCCCOC(=O)Nc1c2sscc-2n(-c2ccc(OC)cc2OC)c1=O [compound 015] | 20.76 | 7.46e+09 | 25.65 | 1.156e+10 | 38.87 | 1.334e+10
10 | COc1ccc(-n2c3cssc-3c(NC(=O)N3CCOCC3)c2=O)c(OC)c1 [compound 023] | 26.86 | 7.86e+09 | 56.66 | 2.234e+10 | 77.31 | 2.998e+10
11 | COc1ccc(OC(=O)Nc2c3sscc-3n(-c3ccc(OC)cc3OC)c2=O)cc1 [compound 010] | 20.86 | 8.87e+09 | 24.34 | 1.018e+10 | 32.34 | 1.023e+10
12 | COc1ccc(-n2c3cssc-3c(NC(=O)Oc3ccc(C)cc3)c2=O)c(OC)c1 [compound 018] | 21.74 | 6.15e+09 | 23.38 | 8.59e+09 | 26.04 | 9.03e+09
13 | CCCCCOC(=O)Nc1c2sscc-2n(-c2ccc(OC)cc2OC)c1=O [compound 011] | 27.68 | 8.76e+09 | 46.65 | 1.146e+10 | 51.87 | 1.188e+10
14 | COc1ccc(-n2c3cssc-3c(NC(=O)Oc3ccc(Cl)cc3)c2=O)c(OC)c1 [compound 017] | 23.24 | 6.36e+09 | 28.88 | 8.67e+09 | 36.90 | 8.88e+09
15 | COc1ccc(-n2c3cssc-3c(NC(=O)OCc3ccco3)c2=O)c(OC)c1 [compound 019] | 24.36 | 6.88e+09 | 28.89 | 9.35e+09 | 29.84 | 1.087e+10
16 | COc1ccc(-n2c3cssc-3c(NC(=O)NCc3ccccc3)c2=O)c(OC)c1 [compound 024] | 24.67 | 7.95e+09 | 33.98 | 8.76e+09 | 42.02 | 9.71e+09
17 | COc1ccc(-n2c3cssc-3c(NC(=O)Oc3cccnc3)c2=O)c(OC)c1 [compound 022] | 31.23 | 6.86e+09 | 38.98 | 1.003e+10 | 47.74 | 1.211e+10
18 | COc1ccc(-n2c3cssc-3c(NC(=O)OC3CCCC3)c2=O)c(OC)c1 [compound 014] | 20.81 | 6.78e+09 | 23.39 | 1.156e+10 | 40.40 | 1.201e+10
19 | CCCOC(=O)Nc1c2sscc-2n(-c2ccc(OC)cc2OC)c1=O [compound 009] | 23.62 | 9.01e+09 | 27.46 | 1.39e+10 | 47.78 | 1.421e+10
20 | COc1ccc(-n2c3cssc-3c(NC(=O)OCc3ccccc3)c2=O)c(OC)c1 [compound 003] | 32.51 | 7.84e+09 | 54.34 | 1.456e+10 | 68.30 | 1.744e+10
21 | COc1ccc(-n2c3cssc-3c(NC(=O)OCCCl)c2=O)c(OC)c1 [compound 016] | 18.79 | 7.34e+09 | 40.47 | 1.047e+10 | 45.76 | 1.156e+10
22 | COc1ccc(-n2c3cssc-3c(NC(=O)OCC3CCCO3)c2=O)c(OC)c1 (stereo not drawn) [compound 012] | 34.02 | 9.03e+09 | 38.98 | 1.146e+10 | 49.07 | 1.201e+10
23 | COc1ccc(-n2c3cssc-3c(NC(=O)Nc3ccccc3)c2=O)c(OC)c1 [compound 026] | 28.98 | 7.84e+09 | 30.38 | 8.76e+09 | 38.63 | 9.71e+09

Reference: patent publication US8258176B2, “Dithiolopyrrolone compounds, the preparation and the use thereof” (Shanghai Institute of Pharmaceutical Industry, priority 2007, dated 2012)
